Measurements taken from patent US20220287306A1, “METHOD FOR IMPROVING TURFGRASS ABIOTIC STRESS TOLERANCE” (SYNGENTA PARTICATIONS AG, priority 2014, published 2022).

Key:
Type in all cases: in vivo
[1] = system: Ultradwarf Bermudagrass; assay: Evapotranspiration of treated turfgrass samples at various vapor pressure deficits in the growth chamber (Example 3); conditions: ASM 30.8 g/ha per spray, 15 applications at 14 day intervals, with chlorothalonil, fluazinam and azoxystrobin products; vs Control without ASM; samples July 2015 and September 2015
Description: (§1) Fifteen applications of treatments were made on 14 day intervals through the season (starting in May and extending through October) on Ultradwarf Bermudagrass on golf course greens. The treatments included (1) a Control that included products with the active ingredients of chlorothalonil, fluazinam and azoxystrobin and no ASM and (2) a treatment that included products with the same active ingredients and rates of the Control treatment, but also included 30.8 g/ha rate of ASM for each spray.
(§2) Turfgrass Samples from the treated plots were taken from a) the ASM treated plots as well b) the Control plots without acibenzolar-s-methyl at two different timings—July 2015 and September 2015. All samples were tested for evapotranspiration at various vapor pressure deficits (VPD) in the growth chamber. The results of the testing are illustrated in FIGS. 9-12.

[2] = system: Ultradwarf Bermudagrass; assay: Turf quality and phytotoxicity on golf course greens (Example 3); conditions: ASM 30.8 g/ha per spray, 15 applications at 14 day intervals
Description: as §1, §2

[3] = system: warm-season turfgrasses; assay: Abiotic stress and phytotoxicity at stated application rates on warm-season turfgrasses; conditions: ASM between about 4 and about 200 g/ha per application
Description: As indicated above, the methods of the present invention may be useful in suppressing abiotic stress or stresses in warm-season turfgrasses. In some embodiments of the present invention, ASM may be applied at a rate of between about 4 and about 200 g/ha per application. In further embodiments of the invention, ASM may be applied at a rate between about 12 and about 150 g/ha per application, or between 12 and about 96 g/ha per application, or between about 12 and about 64 g/ha per application, or between about 12 and about 32 g/ha per application, or between about 32 and about 140 g/ha per application, or between about 32 and about 96 g/ha per application, or between about 32 and about 64 g/ha per application, or between about 64 and about 140 g/ha per application, or between about 64 and about 96 g/ha per application, or between about 96 and about 140 g/ha per application.

[4] = system: cool-season grasses; assay: Phytotoxicity at stated application rates on cool-season grasses; conditions: ASM between about 4 and about 200 g/ha per application

With `CSC(=O)c1cccc2nnsc12` [ASM, S-methyl benzo[1,2,3]thiadiazole-7-carbothioate] the “evapotranspiration as VPD increases” value [1] was “overall reduced evapotranspiration”, the “phytotoxicity to the turfgrass” value [2] was “did not result in any unacceptable phytotoxicity” and the “turf quality under drought or heat stress” value ([2]; with chlorothalonil, fluazinam and azoxystrobin products) was “improved turf quality”. For the same molecule, the “phytotoxicity to warm-season turfgrasses” value [3] was “avoiding unacceptable phytotoxicity” and the “phytotoxicity to cool-season grasses” value [4] was “unacceptable levels of phytotoxicity”.
